Measurements taken from paper PMC11200585, “Prospects for Prostate Cancer Chemotherapy: Cytotoxic Evaluation and Mechanistic Insights of Quinolinequinones with ADME/PK Profile” (Biomedicines, 2024).

Key:
Format in all cases: cell-based, human
DU-145 = assay: NCI-60 one-dose screen (prostate cancer); conditions: 10 µM single dose, 48 h
Procedure: (§1) The obtained quinolinequinones were submitted to NCI, Bethesda, USA, and, as per standard protocol of NCI, all compounds were evaluated for their antiproliferative activity at single-dose assay (10 µM concentration in DMSO) on a panel of 60 cancer cell lines derived from leukemia, non-small-cell lung, colon, CNS, melanoma, ovarian, renal, prostate, and breast, as per protocol. Tested compounds were added to the microtiter culture plates followed by incubation for 48 h at 37 °C. Sulforhodamine B (SRB), a protein-binding dye, is used for endpoint determination. The percent of the growth of the treated cells was determined in comparison to the untreated control cells and the results of each tested compound were reported. Data from one-dose experiments pertain to the percentage growth at 10 μM [16, 17, 18].

PC-3 = assay: NCI-60 one-dose screen (prostate cancer); conditions: 10 µM single dose, 48 h
Procedure: as §1

HOP-62 = assay: NCI-60 one-dose screen (non-small cell lung cancer); conditions: 10 µM single dose, 48 h
Procedure: as §1

NCI-H460 = assay: as above; conditions: 10 µM single dose, 48 h
Procedure: as §1

NCI-H322M = assay: as above; conditions: 10 µM single dose, 48 h
Procedure: as §1

A549/ATCC = assay: as above; conditions: 10 µM single dose, 48 h
Procedure: as §1

NCI-H522 = assay: as above; conditions: 10 µM single dose, 48 h
Procedure: as §1

NCI-H23 = assay: as above; conditions: 10 µM single dose, 48 h
Procedure: as §1

HOP-92 = assay: as above; conditions: 10 µM single dose, 48 h
Procedure: as §1

EKVX = assay: as above; conditions: 10 µM single dose, 48 h
Procedure: as §1

NCI-H226 = assay: as above; conditions: 10 µM single dose, 48 h
Procedure: as §1

SK-MEL-5 = assay: NCI-60 one-dose screen (melanoma); conditions: 10 µM single dose, 48 h
Procedure: as §1

SK-MEL-2 = assay: NCI-60 one-dose screen (melanoma); conditions: 10 µM single dose, 48 h
Procedure: as §1

MALME-3M = assay: NCI-60 one-dose screen (melanoma); conditions: 10 µM single dose, 48 h
Procedure: as §1

UACC-257 = assay: NCI-60 one-dose screen (melanoma); conditions: 10 µM single dose, 48 h
Procedure: as §1

UACC-62 = assay: NCI-60 one-dose screen (melanoma); conditions: 10 µM single dose, 48 h
Procedure: as §1

LOX IMVI = assay: NCI-60 one-dose screen (melanoma); conditions: 10 µM single dose, 48 h
Procedure: as §1

MDA-MB-435 = assay: NCI-60 one-dose screen (melanoma); conditions: 10 µM single dose, 48 h
Procedure: as §1

SK-MEL-28 = assay: NCI-60 one-dose screen (melanoma); conditions: 10 µM single dose, 48 h
Procedure: as §1

HL-60(TB) = assay: NCI-60 one-dose screen (leukemia); conditions: 10 µM single dose
Procedure: as §1

RPMI-8226 = assay: NCI-60 one-dose screen (leukemia); conditions: 10 µM single dose, 48 h
Procedure: as §1

CCRF-CEM = assay: NCI-60 one-dose screen (leukemia); conditions: 10 µM single dose
Procedure: as §1

MOLT-4 = assay: NCI-60 one-dose screen (leukemia); conditions: 10 µM single dose, 48 h
Procedure: as §1

SR = assay: NCI-60 one-dose screen (leukemia); conditions: 10 µM single dose
Procedure: as §1

K-562 = assay: NCI-60 one-dose screen (leukemia)
Procedure: as §1

MDA-MB-468 = assay: NCI-60 one-dose screen (breast cancer); conditions: 10 µM single dose, 48 h
Procedure: as §1

T-47D = assay: NCI-60 one-dose screen (breast cancer); conditions: 10 µM single dose
Procedure: as §1

MCF7 = assay: NCI-60 one-dose screen (breast cancer); conditions: 10 µM single dose, 48 h
Procedure: as §1

HS 578T = assay: NCI-60 one-dose screen (breast cancer); conditions: 10 µM single dose, 48 h
Procedure: as §1

BT-549 = assay: NCI-60 one-dose screen (breast cancer); conditions: 10 µM single dose, 48 h
Procedure: as §1

MDA-MB-231/ATCC = assay: NCI-60 one-dose screen (breast cancer); conditions: 10 µM single dose, 48 h
Procedure: as §1

SF-295 = assay: NCI-60 one-dose screen (CNS cancer); conditions: 10 µM single dose, 48 h
Procedure: as §1

SNB-75 = assay: NCI-60 one-dose screen (CNS cancer); conditions: 10 µM single dose, 48 h
Procedure: as §1

U251 = assay: NCI-60 one-dose screen (CNS cancer); conditions: 10 µM single dose, 48 h
Procedure: as §1

SF-268 = assay: NCI-60 one-dose screen (CNS cancer); conditions: 10 µM single dose, 48 h
Procedure: as §1

SNB-19 = assay: NCI-60 one-dose screen (CNS cancer); conditions: 10 µM single dose, 48 h
Procedure: as §1

SF-539 = assay: NCI-60 one-dose screen (CNS cancer); conditions: 10 µM single dose, 48 h
Procedure: as §1

KM12 = assay: NCI-60 one-dose screen (colon cancer); conditions: 10 µM single dose, 48 h
Procedure: as §1

SW-620 = assay: NCI-60 one-dose screen (colon cancer); conditions: 10 µM single dose, 48 h
Procedure: as §1

HCT-15 = assay: NCI-60 one-dose screen (colon cancer); conditions: 10 µM single dose, 48 h
Procedure: as §1

HCT-116 = assay: NCI-60 one-dose screen (colon cancer); conditions: 10 µM single dose, 48 h
Procedure: as §1

HT29 = assay: NCI-60 one-dose screen (colon cancer); conditions: 10 µM single dose, 48 h
Procedure: as §1

HCC-2998 = assay: NCI-60 one-dose screen (colon cancer); conditions: 10 µM single dose, 48 h
Procedure: as §1

COLO 205 = assay: NCI-60 one-dose screen (colon cancer); conditions: 10 µM single dose, 48 h
Procedure: as §1

OVCAR-3 = assay: NCI-60 one-dose screen (ovarian cancer); conditions: 10 µM single dose
Procedure: as §1

IGROV1 = assay: NCI-60 one-dose screen (ovarian cancer)
Procedure: as §1

OVCAR-5 = assay: NCI-60 one-dose screen (ovarian cancer); conditions: 10 µM single dose, 48 h
Procedure: as §1

OVCAR-4 = assay: NCI-60 one-dose screen (ovarian cancer); conditions: 10 µM single dose, 48 h
Procedure: as §1

NCI/ADR-RES = assay: NCI-60 one-dose screen (ovarian cancer); conditions: 10 µM single dose, 48 h
Procedure: as §1

OVCAR-8 = assay: NCI-60 one-dose screen (ovarian cancer); conditions: 10 µM single dose, 48 h
Procedure: as §1

SK-OV-3 = assay: NCI-60 one-dose screen (ovarian cancer); conditions: 10 µM single dose, 48 h
Procedure: as §1

TK-10 = assay: NCI-60 one-dose screen (renal cancer); conditions: 10 µM single dose, 48 h
Procedure: as §1

786-0 = assay: NCI-60 one-dose screen (renal cancer); conditions: 10 µM single dose, 48 h
Procedure: as §1

ACHN = assay: NCI-60 one-dose screen (renal cancer); conditions: 10 µM single dose, 48 h
Procedure: as §1

SN12C = assay: NCI-60 one-dose screen (renal cancer); conditions: 10 µM single dose, 48 h
Procedure: as §1

A498 = assay: NCI-60 one-dose screen (renal cancer); conditions: 10 µM single dose, 48 h
Procedure: as §1

UO-31 = assay: NCI-60 one-dose screen (renal cancer); conditions: 10 µM single dose, 48 h
Procedure: as §1

COc1ccc(NC2=C(Cl)C(=O)c3nc(C)ccc3C2=O)cc1OC [AQQ4]
GP (growth percentage) (DU-145): 93.00% | GP (growth percentage) (PC-3): 70.56% | GP (growth percentage) (HOP-62): 110.03% | GP (growth percentage) (NCI-H460): 100.46% | GP (growth percentage) (NCI-H322M): 99.05% | GP (growth percentage) (A549/ATCC): 107.06% | GP (growth percentage) (NCI-H522): 78.84% | GP (growth percentage) (NCI-H23): 59.03% | GP (growth percentage) (HOP-92): 112.07% | GP (growth percentage) (EKVX): 50.81% | GP (growth percentage) (NCI-H226): 97.11% | GP (growth percentage) (SK-MEL-5): 86.57% | GP (growth percentage) (SK-MEL-2): 100.13% | GP (growth percentage) (MALME-3M): 94.54% | GP (growth percentage) (UACC-257): 91.03% | GP (growth percentage) (UACC-62): 71.83% | GP (growth percentage) (LOX IMVI): −3.09% | GP (growth percentage) (MDA-MB-435): −67.16% | GP (growth percentage) (SK-MEL-28): 101.65% | GP (growth percentage) (HL-60(TB); 48 h): 9.95% | inhibition at 10 µM (HL-60(TB); Homo sapiens): 90% | GP (growth percentage) (RPMI-8226): 47.33% | GP (growth percentage) (CCRF-CEM; 48 h): 15.29% | inhibition at 10 µM (CCRF-CEM; Homo sapiens): 84.7% | GP (growth percentage) (MOLT-4): 69.83% | GP (growth percentage) (SR; 48 h): 0.92% | inhibition at 10 µM (SR; Homo sapiens): 99.1% | GP (growth percentage) (K-562; 10 µM single dose, 48 h): 7.18% | inhibition at 10 µM (K-562; Homo sapiens, K562, 10 µM single dose): 92.8% | GP (growth percentage) (MDA-MB-468): 58.11% | GP (growth percentage) (T-47D; 48 h): 14.93% | inhibition at 10 µM (T-47D; Homo sapiens, T47D): 85.1% | GP (growth percentage) (MCF7): 59.00% | GP (growth percentage) (HS 578T): 118.57% | GP (growth percentage) (BT-549): 126.22% | GP (growth percentage) (MDA-MB-231/ATCC): 72.96% | GP (growth percentage) (SF-295): 103.62% | GP (growth percentage) (SNB-75): 110.92% | GP (growth percentage) (U251): 105.80% | GP (growth percentage) (SF-268): 84.69% | GP (growth percentage) (SNB-19): 94.62% | GP (growth percentage) (SF-539): 103.46% | GP (growth percentage) (KM12): 98.23% | GP (growth percentage) (SW-620): 72.23% | GP (growth percentage) (HCT-15): 82.29% | GP (growth percentage) (HCT-116): 55.84% | GP (growth percentage) (HT29): 109.56% | GP (growth percentage) (HCC-2998): 103.69% | GP (growth percentage) (COLO 205): 107.70% | GP (growth percentage) (OVCAR-3; 48 h): 13.16% | inhibition at 10 µM (OVCAR-3; Homo sapiens): 86.8% | GP (growth percentage) (IGROV1; 10 µM single dose, 48 h): 19.63% | inhibition at 10 µM (IGROV1; Homo sapiens, IGROV-1, 10 µM single dose): 80.4% | GP (growth percentage) (OVCAR-5): 104.66% | GP (growth percentage) (OVCAR-4): 71.38% | GP (growth percentage) (NCI/ADR-RES): 94.66% | GP (growth percentage) (OVCAR-8): 92.63% | GP (growth percentage) (SK-OV-3): 91.82% | GP (growth percentage) (TK-10): 148.82% | GP (growth percentage) (786-0): 98.99% | GP (growth percentage) (ACHN): 95.00% | GP (growth percentage) (SN12C): 90.46% | GP (growth percentage) (A498): 82.55% | GP (growth percentage) (UO-31): 100.30%
